Test results as given in the supplement of paper PMC13380429.

Experiments:
Conditions in all cases: 72 h
U2OS [1] = assay: relative viability EC50 (midpoint between 100% and the lowest measured viability); higher = less toxic
Vero E6 [2] = assay: as above
Caco-2 [3] = assay: as above
HepG2 [4] = assay: as above
Calu-3 [5] = assay: as above
U2OS [6] = assay: drug sensitivity score (DSS) for viability; higher = more toxic; extreme values may be limits of the assay
Vero E6 [7] = assay: as above
Caco-2 [8] = assay: as above
HepG2 [9] = assay: as above
Calu-3 [10] = assay: as above
U2OS [11] = assay: cell viability relative to DMSO; higher = less toxic
Vero E6 [12] = assay: as above
Caco-2 [13] = assay: as above
HepG2 [14] = assay: as above
Calu-3 [15] = assay: as above

SMILES	relative viability EC50 (U2OS [1]) [µM]	relative viability EC50 (Vero E6 [2]) [µM]	relative viability EC50 (Caco-2 [3]) [µM]	relative viability EC50 (HepG2 [4]) [µM]	relative viability EC50 (Calu-3 [5]) [µM]	drug sensitivity score (U2OS [6])	drug sensitivity score (Vero E6 [7])	drug sensitivity score (Caco-2 [8])	drug sensitivity score (HepG2 [9])	drug sensitivity score (Calu-3 [10])	cell viability (U2OS [11]; 1 nM) [%]	cell viability (U2OS [11]; 10 nM) [%]	cell viability (U2OS [11]; 100 nM) [%]	cell viability (U2OS [11]; 1000 nM) [%]	cell viability (U2OS [11]; 10000 nM) [%]	cell viability (Vero E6 [12]; 1 nM) [%]	cell viability (Vero E6 [12]; 10 nM) [%]	cell viability (Vero E6 [12]; 100 nM) [%]	cell viability (Vero E6 [12]; 1000 nM) [%]	cell viability (Vero E6 [12]; 10000 nM) [%]	cell viability (Caco-2 [13]; 1 nM) [%]	cell viability (Caco-2 [13]; 10 nM) [%]	cell viability (Caco-2 [13]; 100 nM) [%]	cell viability (Caco-2 [13]; 1000 nM) [%]	cell viability (Caco-2 [13]; 10000 nM) [%]	cell viability (HepG2 [14]; 1 nM) [%]	cell viability (HepG2 [14]; 10 nM) [%]	cell viability (HepG2 [14]; 100 nM) [%]	cell viability (HepG2 [14]; 1000 nM) [%]	cell viability (HepG2 [14]; 10000 nM) [%]	cell viability (Calu-3 [15]; 1 nM) [%]	cell viability (Calu-3 [15]; 10 nM) [%]	cell viability (Calu-3 [15]; 100 nM) [%]	cell viability (Calu-3 [15]; 1000 nM) [%]	cell viability (Calu-3 [15]; 10000 nM) [%]
COC(=O)C1=C(C)NC(C)=C(C(=O)OCCSc2ccccc2)[C@@H]1C [PCA-4248]	> 10	> 10	> 10	> 10	> 10	0	0	0.8	0	0.1	98	95.9	93.6	92.9	96.1	98.1	99.1	98.2	96.5	98.8	97.7	99.4	102	94.8	84	92	90.3	93.4	94.6	95.9	93.8	95.6	104	99	87.7
O=C(O)C1=C(CSc2nnnn2CS(=O)(=O)O)CS[C@@H]2[C@H](NC(=O)[C@H](O)c3ccccc3)C(=O)N12 [Cefonicid (sodium)]	> 10	> 10	> 10	> 10	> 10	0	0	0	0	0	95.1	99.2	94.3	101	94.4	99.9	98.9	102	99.1	99.5	97.8	102	93.4	97.7	102	103	100	92.2	103	97.7	95.7	97.2	97.9	96.6	95.8
CN1CCC(=C2c3ccccc3Sc3ccccc32)CC1 [pimethixene]	> 10	> 10	> 10	> 10	> 10	0	0	0	1.2	0	103	97.8	102	99	95.5	103	101	106	105	98.4	100	89.7	96.9	101	102	108	98.9	121	84.7	92.1	103	105	100	100	101
COc1ccc(C(=O)Nc2c(Cl)cncc2Cl)cc1OC1CCCC1 [piclamilast]	> 10	> 10	> 10	> 10	> 10	0	0.8	0	0	0	98.2	95.7	103	98.3	94.8	98.3	95	92.4	91.4	82	96.6	97.3	102	107	98	90.4	86	92.7	102	101	97.5	89.4	102	99.9	87.5
Oc1cc(Cl)ccc1Oc1ccc(Cl)cc1Cl [triclosan]	> 10	> 10	> 10	> 10	> 10	0	0	0	0	0	98.7	96.5	98.3	97.9	99.3	97	104	106	112	95.3	105	102	94.5	95.6	126	105	99.3	102	93.8	113	97.7	92.3	106	101	107
Nc1ccn([C@H]2CO[C@@H](CO)S2)c(=O)n1 [apricitabine]	> 10	> 10	> 10	> 10	> 10	0	0	0	0	0	98.4	94.2	96.6	102	100	93.7	96.9	99.1	96.4	104	99.9	91.7	98.9	103	105	94.9	105	104	99.8	103	101	101	98.5	92.5	102
CC[N+]1(C)CCCC(OC(=O)C(O)(c2ccccc2)c2ccccc2)C1 (stereo not given) [pipenzolate]	> 10	> 10	> 10	> 10	> 10	0	0	0	0	0	100	95	95.4	93.3	97.4	105	101	105	103	96.7	102	100	103	95.2	95.7	89.3	102	97.7	99.8	94.3	96.3	95.5	93.3	94.6	91.8
Nc1nc(OCc2cc(Br)cs2)c2[nH]cnc2n1 [lomeguatrib]	> 10	> 10	> 10	> 10	> 10	0	0	0	0	0	101	94.6	106	100	99.7	105	104	95.4	102	99.9	96.9	90.9	110	96.1	100	87.7	99.9	84	98.8	100	106	103	95.8	102	93
C[C@]12C=CC(=O)C=C1CC[C@@H]1[C@@H]2[C@@H](O)C[C@@]2(C)[C@H]1CC[C@]2(O)C(=O)COC(=O)CCC(=O)O [prednisolone-hemisuccinate]	> 10	> 10	> 10	> 10	> 10	0	0	1.1	0	0	97.5	103	96	100	93.6	99.3	99.9	95.8	90	98.6	94.7	103	93.3	91.3	79.8	112	92.5	91.7	98.5	108	98.6	102	97.2	102	88.9
COc1c(C)c(C(=O)c2ccc(N)c(C(=O)O)c2)n2ccccc12	> 10	> 10	> 10	> 10	> 10	0	0	0	0	0	99.9	99.2	96.9	98.9	90.4	99.9	98.7	99.4	100	106	89.7	88.7	87.1	100	106	100	108	101	93.4	119	96.6	102	96	98.2	103
Cc1cc(N2CCCCC2)nc2ccccc12 [ML204]	> 10	> 10	> 10	> 10	> 10	0	0	0	0	0	99.7	98.4	96.9	102	101	91.7	92.7	87.3	92.2	103	87.9	97.4	84.3	96.2	87.9	92	93.5	88.8	104	102	113	95.5	101	107	110
CC1=CC(=C(c2ccc(N)cc2)c2ccc(N)cc2)C=CC1=N [basic-fuchsin]	1.96	1.54	1.47	1.81	1.93	7.1	6.6	7.9	7.9	6.6	97.8	97.9	95.2	86.5	12.8	97.2	91	94.8	82.3	29.8	88.8	92.4	106	77.6	18.6	102	97	104	83	7.8	92.3	102	103	87.1	19.5
CN(C)CCN1C(=O)c2cccc3cc(NC(N)=O)cc(c23)C1=O [unbs-5162]	> 10	> 10	> 10	1.61	> 10	0	0	0	5.3	1.5	104	99.7	96.4	101	88	108	101	107	95.1	90.8	96.5	99.3	93.5	104	96	100	101	93.7	86.5	42.2	100	105	95.9	88.6	78.4
COc1cc(C(=O)N2CCOCC2)cc(OC)c1OC [trimetozine]	> 10	> 10	> 10	> 10	> 10	0	0	0	0	0	95.8	98.3	96.8	99.9	96.6	106	107	108	94.8	99.9	95.4	105	86.4	108	96.6	93.8	92.9	102	95.3	98.8	98.9	94.8	101	92.1	102
